For 31 compounds, IC50 results are on record in patent publication US20250179078A1, “INHIBITORS OF NLRP3” (PTC THERAPEUTICS, INC., priority 2022, published 2025).

Structures are written as SMILES.

T1 sequence (Q96P20 whole entry): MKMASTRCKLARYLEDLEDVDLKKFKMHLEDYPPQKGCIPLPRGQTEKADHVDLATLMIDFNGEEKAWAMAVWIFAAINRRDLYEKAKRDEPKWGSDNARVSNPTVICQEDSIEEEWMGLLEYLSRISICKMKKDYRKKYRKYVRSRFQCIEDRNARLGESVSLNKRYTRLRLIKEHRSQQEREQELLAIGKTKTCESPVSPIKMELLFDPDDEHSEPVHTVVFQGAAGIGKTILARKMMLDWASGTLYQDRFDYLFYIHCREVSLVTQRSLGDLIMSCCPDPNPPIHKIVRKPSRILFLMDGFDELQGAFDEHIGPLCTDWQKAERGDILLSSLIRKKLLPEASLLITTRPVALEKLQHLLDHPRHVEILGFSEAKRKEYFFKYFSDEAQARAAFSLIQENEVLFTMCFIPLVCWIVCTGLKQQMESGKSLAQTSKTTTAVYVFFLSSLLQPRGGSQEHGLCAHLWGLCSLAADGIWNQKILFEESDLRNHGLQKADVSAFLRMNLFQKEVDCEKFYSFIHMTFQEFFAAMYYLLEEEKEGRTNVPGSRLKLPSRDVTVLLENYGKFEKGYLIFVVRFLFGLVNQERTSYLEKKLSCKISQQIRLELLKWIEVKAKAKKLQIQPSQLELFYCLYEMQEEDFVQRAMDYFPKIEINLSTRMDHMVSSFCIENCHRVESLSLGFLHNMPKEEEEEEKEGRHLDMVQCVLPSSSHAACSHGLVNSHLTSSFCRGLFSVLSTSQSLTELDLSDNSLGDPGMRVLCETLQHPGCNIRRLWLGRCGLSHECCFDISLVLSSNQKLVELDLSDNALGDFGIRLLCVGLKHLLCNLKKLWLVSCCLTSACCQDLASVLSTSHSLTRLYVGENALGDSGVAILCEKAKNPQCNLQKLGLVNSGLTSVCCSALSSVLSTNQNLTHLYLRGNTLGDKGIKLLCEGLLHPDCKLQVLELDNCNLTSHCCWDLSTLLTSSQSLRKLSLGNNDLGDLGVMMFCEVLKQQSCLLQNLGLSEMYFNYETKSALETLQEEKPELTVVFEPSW

The test addresses T1, NLRP3 (Homo sapiens, UniProt Q96P20).
T1 construct: host or cells: THP-1 cells differentiated with PMA
The test can be described thus: IL-1β Secretion Assay (NLRP3-dependent IL1β secretion in THP1 cells). To be noted: PMA-differentiated THP-1 cells; compounds incubated 20 h; 2.5 μM Nigericin 3 h; HTRF IL-1β readout; read-out: IC50 IL-1β Inhibition. The class given is cell-based. In outline:
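THP-1 cells differentiated with 100 ng/mL PMA for 24 h, then given compound (7-point 3-fold series, 1:200 from DMSO) for 20 h in RPMI+5% FBS. NLRP3 activated with 2.5 μM nigericin for 3 h; secreted IL-1β measured by HTRF; IC50 from logistic fit of % inhibition.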
For orientation: In TR-FRET formats the signal depends on donor and acceptor labels being close together.
Take `CN1CCC[C@@H](Nc2nnc(-c3ccc(C(F)(F)F)cc3CC(F)(F)F)c3cccn23)C1` [Compound 40, N-[(3R)-1-methylpiperidin-3-yl]-1-[2-(2,2,2-trifluoroethyl)-4-(trifluoromethyl)phenyl]pyrrolo[1,2-d][1,2,4]triazin-4-amine]: the IC50 was less than 1 nM.
With `COc1ccc(-c2nnc(NC3CCNC3=O)n3cccc23)c(OC(F)F)c1` (stereo not shown) [Compound 174, 3-({1-[2-(difluoromethoxy)-4-methoxyphenyl]pyrrolo[1,2-d][1,2,4]triazin-4-yl}amino)pyrrolidin-2-one] the figure was 10 to 100 nM.
With `O[C@H]1COCC[C@H]1Nc1nnc(-c2ccc(C(F)(F)F)cc2CC(F)(F)F)c2cccn12` [Compound 114, (3R,4R)-4-({1-[2-(2,2,2-trifluoroethyl)-4-(trifluoromethyl)phenyl]pyrrolo[1,2-d][1,2,4]triazin-4-yl}amino)oxan-3-ol], the IC50 is 1 to 10 nM.
With `COc1ccc(-c2nnc(N[C@H]3C[C@@](C)(O)C3)n3nc(C)cc23)c(OC(F)(F)F)c1` [Compound 391, (1s,3s)-3-({4-[4-methoxy-2-(trifluoromethoxy)phenyl]-2-methylpyrazolo[1,5-d][1,2,4]triazin-7-yl}amino)-1-methylcyclobutan-1-ol] the figure was 10 to 100 nM.
`CCN1CCC[C@@H](Nc2nnc(-c3ccc(C(F)(F)F)cc3C(F)(F)F)c3c(F)ccn23)C1` [Compound 29, 1-[2,4-bis(trifluoromethyl)phenyl]-N-[(3R)-1-ethylpiperidin-3-yl]-8-fluoropyrrolo[1,2-d][1,2,4]triazin-4-amine]: the IC50 fell in the range of 1 to 10 nM.
Consider `CCN1CCC[C@@H](Nc2nnc(-c3ccc(S(C)(=O)=O)cc3OC(F)(F)F)c3cc(C)nn23)C1` [Compound 369, N-[(3R)-1-ethylpiperidin-3-yl]-4-[4-(methanesulfonyl)-2-(trifluoromethoxy)phenyl]-2-methylpyrazolo[1,5-d][1,2,4]triazin-7-amine], for which the IC50 fell in the range of 10 to 100 nM.
For the compound `Cc1ccc(-c2nnc(N[C@@H]3CCCN(C)C3)n3cccc23)c(CC(F)(F)F)c1` [Compound 159, N-[(3R)-1-methylpiperidin-3-yl]-1-[4-methyl-2-(2,2,2-trifluoroethyl)phenyl]pyrrolo[1,2-d][1,2,4]triazin-4-amine], the IC50 was less than 1 nM.
On to `Cc1cc2c(-c3ccc(C4CC4)cc3OC(F)F)nnc(N[C@@H]3CCCN(C)C3)n2n1` [Compound 360, 4-[4-cyclopropyl-2-(difluoromethoxy)phenyl]-2-methyl-N-[(3R)-1-methylpiperidin-3-yl]pyrazolo[1,5-d][1,2,4]triazin-7-amine], for which the IC50 is less than 1 nM.
As for `CCN1C[C@H](F)C[C@@H](Nc2nnc(-c3ccc(C(F)(F)F)cc3OC(F)F)c3cc(C)nn23)C1` [Compound 356, 4-[2-(difluoromethoxy)-4-(trifluoromethyl)phenyl]-N-[(3R,5R)-1-ethyl-5-fluoropiperidin-3-yl]-2-methylpyrazolo[1,5-d][1,2,4]triazin-7-amine], the IC50 is less than 1 nM.
Regarding `COc1ccc(-c2nnc(NCc3nnnn3C)n3cccc23)c(OC(F)(F)F)c1` [Compound 125, 1-[4-methoxy-2-(trifluoromethoxy)phenyl]-N-[(1-methyl-1H-tetrazol-5-yl)methyl]pyrrolo[1,2-d][1,2,4]triazin-4-amine], the IC50 lay in the range of 100 to 300 nM.
For the compound `CCN1CCC[C@@H](Nc2nnc(-c3ccc(OC)cc3OC3CC3)c3cccn23)C1` [Compound 182, 1-[2-(cyclopropyloxy)-4-methoxyphenyl]-N-[(3R)-1-ethylpiperidin-3-yl]pyrrolo[1,2-d][1,2,4]triazin-4-amine], the IC50 fell in the range of 1 to 10 nM.
Under `COc1ccc(-c2nnc(N[C@@H]3CCCN(CCO)C3)n3ccc(F)c23)c(OC(F)F)c1` [Compound 57, 2-[(3R)-3-({1-[2-(difluoromethoxy)-4-methoxyphenyl]-8-fluoropyrrolo[1,2-d][1,2,4]triazin-4-yl}amino)piperidin-1-yl]ethan-1-ol] stands 10 to 100 nM; under `C[C@H](Nc1nnc(-c2ccc(C(F)(F)F)cc2OC(F)F)c2cccn12)c1cccc(O)c1` (single isomer, unassigned) [Compound 103], 10 to 100 nM; under `C[C@]1(O)C[C@@H](Nc2nnc(-c3ccc(C(F)(F)F)cc3C(F)(F)F)c3cncn23)C1` [Compound 218, (1s,3s)-3-({1-[2,4-bis(trifluoromethyl)phenyl]imidazo[1,5-d][1,2,4]triazin-4-yl}amino)-1-methylcyclobutan-1-ol], 1 to 10 nM.
With `COc1ccc(-c2nnc(N[C@H]3C[C@@](C)(O)C3)n3cncc23)c(OC(F)(F)F)c1` [Compound 219, (1s,3s)-3-({1-[4-methoxy-2-(trifluoromethoxy)phenyl]imidazo[1,5-d][1,2,4]triazin-4-yl}amino)-1-methylcyclobutan-1-ol], the IC50 lay in the range of 1 to 10 nM.
Take `COc1ccc(-c2nnc(NC3CC(C)(CO)C3)n3cncc23)c(CC(F)(F)F)c1` (stereo not shown) [Compound 337, [3-({1-[4-methoxy-2-(2,2,2-trifluoroethyl)phenyl]imidazo[1,5-d][1,2,4]triazin-4-yl}amino)-1-methylcyclobutyl]methanol]: the IC50 lay in the range of 10 to 100 nM.
On to `CN1CCC[C@@H](Nc2nnc(-c3ccc(Br)cc3OC(F)F)c3cncn23)C1` [Compound 195, 1-[4-bromo-2-(difluoromethoxy)phenyl]-N-[(3R)-1-methylpiperidin-3-yl]imidazo[1,5-d][1,2,4]triazin-4-amine], for which the concentration for half-maximal inhibition (IC50) was less than 1 nM.
As for `O[C@H]1CCOC[C@@H]1Nc1nnc(-c2ccc(C(F)(F)F)cc2CC(F)(F)F)c2cncn12` [Compound 400, (3S,4S)-3-({1-[2-(2,2,2-trifluoroethyl)-4-(trifluoromethyl)phenyl]imidazo[1,5-d][1,2,4]triazin-4-yl}amino)oxan-4-ol], the IC50 lay in the range of 10 to 100 nM.
For `O[C@@H]1CCCC[C@H]1Nc1nnc(-c2ccc(C(F)(F)F)cc2OC(F)F)c2cccn12` [Compound 110, (1R,2R)-2-({1-[2-(difluoromethoxy)-4-(trifluoromethyl)phenyl]pyrrolo[1,2-d][1,2,4]triazin-4-yl}amino)cyclohexan-1-ol], the 50% inhibitory concentration (IC50) fell in the range of 1 to 10 nM.
As for `Cc1cc2c(-c3ccc(C(F)(F)F)cc3C(F)(F)F)nnc(N[C@@H]3CCOC[C@H]3O)n2c1` [Compound 164, (3S,4R)-4-({1-[2,4-bis(trifluoromethyl)phenyl]-7-methylpyrrolo[1,2-d][1,2,4]triazin-4-yl}amino)oxan-3-ol], the IC50 was in the range of 100 to 300 nM.
For `OC[C@H]1C[C@@H](Nc2nnc(-c3ccc(C(F)(F)F)cc3OC(F)(F)F)c3cccn23)C1` [Compound 141, [(1s,3s)-3-({1-[2-(trifluoromethoxy)-4-(trifluoromethyl)phenyl]pyrrolo[1,2-d][1,2,4]triazin-4-yl}amino)cyclobutyl]methanol], the IC50 fell in the range of 1 to 10 nM.
Under `COc1ccc(-c2nnc(NC(C)c3ccccc3)n3cncc23)c(OC(F)(F)F)c1` (stereo not shown) [Compound 231, 1-[4-methoxy-2-(trifluoromethoxy)phenyl]-N-(1-phenylethyl)imidazo[1,5-d][1,2,4]triazin-4-amine] stands no less than 300 nM; under `CN1CC[C@@H](O)[C@@H](Nc2nnc(-c3ccc(OC(F)F)cc3OC(F)(F)F)c3cccn23)C1` [Compound 170, (3S,4R)-3-({1-[4-(difluoromethoxy)-2-(trifluoromethoxy)phenyl]pyrrolo[1,2-d][1,2,4]triazin-4-yl}amino)-1-methylpiperidin-4-ol], less than 1 nM.
`COc1ccc(-c2nnc(NC3CC(C(C)(C)O)C3)n3cncc23)c(OC(F)(F)F)c1` (stereo not shown) [Compound 338, 2-[3-({1-[4-methoxy-2-(trifluoromethoxy)phenyl]imidazo[1,5-d][1,2,4]triazin-4-yl}amino)cyclobutyl]propan-2-ol]: the IC50 fell in the range of 100 to 300 nM.
Under `COc1ccc(-c2nnc(N[C@@H]3CCCN(CCO)C3)n3cncc23)c(OC(F)(F)F)c1` [Compound 211, 2-[(3R)-3-({1-[4-methoxy-2-(trifluoromethoxy)phenyl]imidazo[1,5-d][1,2,4]triazin-4-yl}amino)piperidin-1-yl]ethan-1-ol] stands less than 1 nM; under `OCCN1CCC[C@@H](Nc2nnc(-c3ccc(C(F)(F)F)cc3CC(F)(F)F)c3cncn23)C1` [Compound 301], less than 1 nM; under `CN1CCCC(Nc2nnc(-c3ccc(C(F)(F)F)cc3C(F)(F)F)c3cncn23)C1=O` (stereo not shown) [Compound 272, 3-({1-[2,4-bis(trifluoromethyl)phenyl]imidazo[1,5-d][1,2,4]triazin-4-yl}amino)-1-methylpiperidin-2-one], 1 to 10 nM.
Consider `CN1CC[C@@H](O)[C@@H](Nc2nnc(-c3ccc(C(F)(F)F)cc3CC(F)(F)F)c3cncn23)C1` [Compound 289, (3S,4R)-1-methyl-3-({1-[2-(2,2,2-trifluoroethyl)-4-(trifluoromethyl)phenyl]imidazo[1,5-d][1,2,4]triazin-4-yl}amino)piperidin-4-ol], for which the IC50 lay within 1 to 10 nM.
Take `CC(Nc1nnc(-c2ccc(C3CC3)cc2CC(F)(F)F)c2cncn12)c1cccc(O)c1` (stereo not shown) [Compound 354, 3-[1-({1-[4-cyclopropyl-2-(2,2,2-trifluoroethyl)phenyl]imidazo[1,5-d][1,2,4]triazin-4-yl}amino)ethyl]phenol]: the IC50 lay within 1 to 10 nM.
As for `CCN1CC[C@@H](O)[C@@H](Nc2nnc(-c3ccc(OC)cc3OC(F)F)c3cccn23)C1` [Compound 175, (3S,4R)-3-({1-[2-(difluoromethoxy)-4-methoxyphenyl]pyrrolo[1,2-d][1,2,4]triazin-4-yl}amino)-1-ethylpiperidin-4-ol], the IC50 is less than 1 nM.
On to `COc1ccc(-c2nnc(N[C@H]3CCCC[C@@H]3O)n3cccc23)c(OC(F)(F)F)c1` [Compound 81, (1S,2S)-2-({1-[4-methoxy-2-(trifluoromethoxy)phenyl]pyrrolo[1,2-d][1,2,4]triazin-4-yl}amino)cyclohexan-1-ol], for which the IC50 was 10 to 100 nM.

By IC50 is commonly meant the concentration needed to halve the response being measured.
